Measured values: PMC3608651, “A Broad Profile of Co-Dominant Epitopes Shapes the Peripheral Mycobacterium tuberculosis Specific CD8+ T-Cell Immune Response in South African Patients with Active Tuberculosis” (PLoS ONE, 2013)
Where two headings read alike, the source gives them in different places.

Columns and labels:
Format in all cases: binding
HLA-A*30:02 [1] = molecular target: T1, HLA-A*30:02 (Homo sapiens, UniProt P04439, D101N/D140H/D185E/E176R/F33S/G80R/H175R/K168Q/Q94H/R138E/R41S/V100E); conditions: percent relative the binding of positive control peptide […]; duplicated experiments; positive binder >40%
HLA-A*30:02 [2] = molecular target: T1, HLA-A*30:02
HLA-A*30:02 [3] = molecular target: T1, HLA-A*30:02; conditions: time points 0-8 h
HLA-A*30:01 = HLA-A*30:01 (Homo sapiens, UniProt P04439, D140H/D185E/E176W/F33S/G80R/H175R/K168Q/R138E/R41S); conditions: percent relative the binding of positive control peptide […]; duplicated experiments; positive binder >40%
HLA-A*02:01 = HLA-A*02:01 (Homo sapiens, UniProt P04439, D140Y/D185E/D98H/E176V/E277Q/G131W/G231S/I119V/I121R/I166T/I218V/L300P/L318F/N151K/N90K/P208A/P217A/Q86G/Q94H/R138H/R169H/T345S)
HLA-A*24:02 = HLA-A*24:02 (Homo sapiens, UniProt P04439, D101N/D140Y/D185E/E176V/E190D/F33S/G103R/G107R/I119L/I121M/I306V/K335N/L105A/L180Q/L300P/N151K/N90K/Q86E/Q94H/R106L/R138H/R89G/T104I/T345S/V100E/W191G/Y123F)
HLA-A*68:01 = HLA-A*68:01 (Homo sapiens, UniProt P04439, A269V/D185E/E176V/E277Q/E87N/F33Y/G231S/I121M/I166T/I218V/L180W/L300P/L318F/N151K/P208A/P217A/Q86R/R169H/T345S); conditions: percent relative the binding of positive control peptide […]; duplicated experiments; positive binder >40%
HLA-B*07:02 = HLA-B*07:02 (Homo sapiens, UniProt P01889); conditions: percent relative the binding of positive control peptide […]; duplicated experiments; positive binder >40%
HLA-B*58:01 = HLA-B*58:01 (Homo sapiens, UniProt P01889, A329T/C349S/D201E/D98Y/E176V/E187L/E204Q/E69T/G107R/I218V/I90N/K202T/L105A/L119I/N104I/N87E/Q89R/Q94S/R106L/R155S/R180L/R86G/S101N/S121R/S35A/S48A/T118I/V127L/V306I/V36M/Y140S/Y91M); conditions: percent relative the binding of positive control peptide […]; duplicated experiments; positive binder >40%
HLA-C*07:01 = HLA-C*07:01 (Homo sapiens, UniProt P10321, K90N/S123Y); conditions: percent relative the binding of positive control peptide […]; duplicated experiments; positive binder >40%
[4] = percent relative the binding of positive control peptide […], plate-bound monomer 0.5 µg/ml, duplicated experiments, positive binder >40%
[5] = percent relative the binding of positive control peptide […], duplicated experiments, positive binder >40%

| Substance | Bind A*30:02 (HLA-A*30:02 [1]) | Aff A*30:02 (ED50) (HLA-A*30:02 [2]) | O-rate A*30:02 (t1/2) (HLA-A*30:02 [3]) | Bind A*30:01 (HLA-A*30:01) | Bind A*02:01 (HLA-A*02:01; [4]) | Bind A*24:02 (HLA-A*24:02; [5]) | Bind A*68:01 (HLA-A*68:01) | Bind B*07:02 (HLA-B*07:02) | Bind B*58:01 (HLA-B*58:01) | Bind C*07:01 (HLA-C*07:01) | Bind A*02:01 (HLA-A*02:01) | Bind A*24:02 (HLA-A*24:02) |
| --- | --- | --- | --- | --- | --- | --- | --- | --- | --- | --- | --- | --- |
| AYHSMSSTH [Rv0288_68–76m1] | 70% | 200 nM | 30 min |  |  |  |  |  |  |  |  |  |
| DHAGDMAGY [Rv0288_13–21m1] | 141% | 10 nM | 18 min |  |  |  |  |  |  |  |  |  |
| LVRAYHSMS [Rv0288_65–73m1] | 30% | 10 nM | 54 min | 7% |  |  |  |  |  |  |  |  |
| SALLDPSQG | 62% |  |  | 12% | 0% | 0% | 0% | 3% | 8% | 9% |  |  |
| SFYSDW YSP | 77% |  |  | 0% | 7% | 0% | 0% | 0% | 0% | 0% |  |  |
| SGLSIVMPV | 38% |  |  | 0% | 95% | 0% | 0% | 0% | 0% | 0% |  |  |
| SLIGLAMGD | 47% |  |  | 0% |  | 0% | 0% | 3% | 0% | 0% | 57 |  |
| SLSALLDPS | 3% |  |  | 2% | 57% | 4% | 0% | 1% | 18% | 11% |  |  |
| SPACGKAGC | 0% |  |  | 0% | 16% | 0% | 0% | 77% | 0% | 0% |  |  |
| SPAVYLLDG | 0% |  |  | 0% | 0% | 49% | 0% | 0% | 0% | 1% |  |  |
| SQGMGPSLI | 0% |  |  | 11% | 50% | 55% | 0% | 2% | 11% | 22% |  |  |
| SSNLKFQDA | 64% |  |  | 0% | 32% | 12% | 14% | 0% | 9% | 10% |  |  |
| SW EYW GAQL | 0% |  |  | 0% | 31% | 79% | 0% | 1% | 0% | 0% |  |  |
| T RLW V Y CG N | 33% |  |  | 45% | 0% | 0% | 5% | 0% | 0% | 15% |  |  |
| THSWEYWGA | 67% |  |  | 0% | 21% | 0% | 57% | 2% | 0% | 6% |  |  |
| TMLGHAGDM [Rv0288_10–18m1] | 99% | 5000 nM | 36 min |  | 10% | 4% |  |  |  |  |  |  |
| TSELPQW LS | 0% |  |  | 0% | 12% | 52% | 0% | 14% | 0% | 0% |  |  |
| VKPTGSAAI | 0% |  |  | 0% | 0% | 0% | 0% | 43% | 0% | 0% |  |  |
| VMPVGGQSS | 12% |  |  | 0% | 60% | 0% | 0% | 0% | 0% | 0% |  |  |
| VQFQSGGNN | 51% |  |  | 0% | 0% | 0% | 0% | 0% | 0% | 0% |  |  |
| VRSSNLKFQ | 0% |  |  | 0% | 5% | 23% | 14% | 10% | 7% | 61% |  |  |
| VYCGNGTPN | 80% |  |  | 8% | 0% | 11% | 4% | 3% | 15% | 59% |  |  |
| VYLLDGLRA | 98% |  |  | 0% | 86% | 87% | 13% | 0% | 0% | 9% |  |  |
| W YYQ SG LSI | 0% |  |  | 18% | 37% | 143% | 0% | 6% | 0% | 13% |  |  |
| WVYCGNGTP | 0% |  |  | 0% | 11% | 0% | 55% | 2% | 4% | 16% |  |  |
| YHPQQFIYA | 0% |  |  | 3% | 49% | 0% | 0% | 0% | 9% | 15% |  |  |
| YLLDGLRAQ | 10% |  |  | 0% | 111% | 0% | 15% | 0% | 0% | 0% |  |  |
| YNAAGGHNA | 53% |  |  | 10% | 16% | 0% | 32% | 0% | 46% | 12% |  |  |
| YSDWYSPAC | 2% |  |  | 15% | 59% | 0% | 18% | 0% | 85% | 5% |  |  |
| YYQSGLSIV | 37% |  |  | 29% | 98% |  | 5% | 0% | 0% | 25% |  | 130 |
